Results taken from patent US11596639B2, “Substituted indole Mcl-1 inhibitors” (Vanderbilt University, priority 2016, dated 2023).
pKi: −log10 of the molar value. Like-named read-outs stand apart in the source and are kept apart here.

How the values were obtained:
Mcl-1 = Mcl-1 (Homo sapiens (Human), UniProt Q07820); experiment: TR-FRET binding assay, FITC-Bak peptide and MBP-tagged Mcl-1; conditions: read-out: Ki for Inhibition of Mcl-1 by TR-FRET assay
Procedure: Compounds are diluted in DMSO in a 16-point, semilog serial dilution scheme. […] The plate was mixed and incubated for 3 hours at room temperature. […] TR-FRET signal is plotted and IC50 and Ki values are calculated in the same manner as the fluorescence polarization anisotropy based competition assays.

[1] = test system: H929 human cancer cell lines; experiment: Cellular viability / proliferation (Cell TiterGlo, 72 h); assay type: cell-based
Outline: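 Plating is at 1,000 cells/well in 10% FBS medium; after 24 h, compound is added as a 2-fold series starting at 50 μM with under 1% DMSO.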

[2] = Homo sapiens, NCI-H929, 72 h, read-out: GI50 on cellular proliferation of H929 human cancer cell lines, H929 cells, 72 h, Cell TiterGlo, 10% FBS

Chain of Mcl-1 (Q07820 172-327): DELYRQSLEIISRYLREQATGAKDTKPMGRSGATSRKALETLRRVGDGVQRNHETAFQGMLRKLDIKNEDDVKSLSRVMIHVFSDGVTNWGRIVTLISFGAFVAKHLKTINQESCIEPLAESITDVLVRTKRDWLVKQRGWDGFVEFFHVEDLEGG

Row | SMILES | pKi (Mcl-1) | GI50 [1, 2] | GI50 ([1]; read-out: GI50 on cellular proliferation of H929 human cancer cell lines, H929 cells, 72 h, Cell TiterGlo, 10% FBS) | GI50 ([1]; H929 cells, 72 h, Cell TiterGlo, 10% FBS, read-out: GI50 on cellular proliferation of H929 human cancer cell lines)
1 | COCCn1cnc(-c2ccc3c(c2)c(N2C[C@@H](C)n4c(c(CCCOc5cc(C)c(Cl)c(C)c5)c5ccc(Cl)c(-c6c(C)nc(CN7CCN(C)C(=O)C7)nc6C)c54)C2=O)cn3CCN2CCOCC2)n1 [Example 722, (R)-7-Chloro-10-(3-(4-chloro-3,5-dimethylphenoxy)propyl)-6-(4,6-dimethyl-2-((4-methyl-3-oxopiperazin-1-yl)methyl)pyrimidin-5-yl)-2-(5-(1-(2-methoxyethyl)-1H-1,2,4-triazol-3-yl)-1-(2-morpholinoethyl)-1H-indol-3-yl)-4-methyl-3,4-dihydropyrazino[1,2-a]indol-1(2H)-one] | 8.51 | < 200 nM |  | 
2 | Cc1nn(C)c(C)c1-c1c(Cl)ccc2c(CCCOc3cccc4ccccc34)c3n(c12)[C@H](C)CN(c1cn(C)c2ccc(C(=O)O)cc12)C3=O [Example 545, (R)-3-(7-Chloro-4-methyl-10-(3-(naphthalen-1-yloxy)propyl)-1-oxo-6-(1,3,5-trimethyl-1H-pyrazol-4-yl)-3,4-dihydropyrazino[1,2-a]indol-2(1H)-yl)-1-methyl-1H-indole-5-carboxylic acid] | 9.41 | 560 nM |  | 
3 | Cc1cc(OCCCc2c3n(c4c(-c5c(C)nn(C)c5C)c(Cl)ccc24)[C@H](C)CN(c2cc(OCCN(C)C)cc4cc(C(=O)O)n(Cc5ccccn5)c24)C3=O)cc(C)c1Cl [Example 590, (R)-7-(7-chloro-10-(3-(4-chloro-3,5-dimethylphenoxy)propyl)-4-methyl-1-oxo-6-(1,3,5-trimethyl-1H-pyrazol-4-yl)-3,4-dihydropyrazino[1,2-a]indol-2(1H)-yl)-5-(2-(dimethylamino)ethoxy)-1-(pyridin-2-ylmethyl)-1H-indole-2-carboxylic acid] | > 9.70 | 670 nM |  | 
4 | Cc1ccc(Cn2cc(C(=O)O)c3cccc(N4C[C@@H](C)n5c(c(CCCOc6cc(C)c(Cl)c(C)c6)c6ccc(Cl)c(-c7c(C)nn(C)c7C)c65)C4=O)c32)nc1 (single isomer, unassigned) [Example 501] | 9.17 | 1200 nM |  | 
5 | Cc1cc(OCCCc2c3n(c4c(-c5c(C)nn(C)c5C)c(Cl)ccc24)[C@H](C)CN(c2cn(CC(N)=O)c4ccc(C(=O)O)cc24)C3=O)cc(C)c1Cl [Example 620, (R)-1-(2-amino-2-oxoethyl)-3-(7-chloro-10-(3-(4-chloro-3,5-dimethylphenoxy)propyl)-4-methyl-1-oxo-6-(1,3,5-trimethyl-1H-pyrazol-4-yl)-3,4-dihydropyrazino[1,2-a]indol-2(1H)-yl)-1H-indole-5-carboxylic acid] | > 9.70 | 7600 nM |  | 
6 | CCc1ccnc(Cn2c(C(=O)O)cc3cc(C)cc(N4C[C@@H](C)n5c(c(CCCOc6cc(C)c(Cl)c(C)c6)c6ccc(Cl)c(-c7c(C)nn(C)c7C)c65)C4=O)c32)c1 [Example 627, (R)-7-(7-chloro-10-(3-(4-chloro-3,5-dimethylphenoxy)propyl)-4-methyl-1-oxo-6-(1,3,5-trimethyl-1H-pyrazol-4-yl)-3,4-dihydropyrazino[1,2-a]indol-2(1H)-yl)-1-((4-ethylpyridin-2-yl)methyl)-5-methyl-1H-indole-2-carboxylic acid] | > 9.70 | < 200 nM |  | 
7 | COCCn1cc(C(=O)O)c2cc(OCCN3CCN(C)CC3)cc(N3C[C@@H](C)n4c(c(CCCOc5cc(C)c(Cl)c(C)c5)c5ccc(Cl)c(-c6c(C)nn(C)c6C)c54)C3=O)c21 [Example 676, (R)-7-(7-chloro-10-(3-(4-chloro-3,5-dimethylphenoxy)propyl)-4-methyl-1-oxo-6-(1,3,5-trimethyl-1H-pyrazol-4-yl)-3,4-dihydropyrazino[1,2-a]indol-2(1H)-yl)-1-(2-methoxyethyl)-5-(2-(4-methylpiperazin-1-yl)ethoxy)-1H-indole-3-carboxylic acid] | 9.25 | 1100 nM |  | 
8 | Cc1cc(OCCCc2c3n(c4c(-c5c(C)nn(C)c5C)c(Cl)ccc24)[C@H](C)CN(c2cc(CCN4CCN(C)CC4)cc4cc(C(=O)O)n(C)c24)C3=O)cc(C)c1Cl [Example 725, (R)-7-(7-chloro-10-(3-(4-chloro-3,5-dimethylphenoxy)propyl)-4-methyl-1-oxo-6-(1,3,5-trimethyl-1H-pyrazol-4-yl)-3,4-dihydropyrazino[1,2-a]indol-2(1H)-yl)-1-methyl-5-(2-(4-methylpiperazin-1-yl)ethyl)-1H-indole-2-carboxylic acid] | > 9.70 | < 200 nM |  | 
9 | Cc1cc(OCCCc2c3n(c4c(-c5c(C)cc(OCCN(C)C)cc5C)c(Cl)ccc24)[C@H](C)CN(c2cn(C)c4ccc(C(=O)O)cc24)C3=O)cc(C)c1Cl [Example 509, (R)-3-(7-chloro-10-(3-(4-chloro-3,5-dimethylphenoxy)propyl)-6-(4-(2-(dimethylamino)ethoxy)-2,6-dimethylphenyl)-4-methyl-1-oxo-3,4-dihydropyrazino[1,2-a]indol-2(1H)-yl)-1-methyl-1H-indole-5-carboxylic acid] | 8.80 | 390 nM |  | 
10 | Cc1cc(OCCCc2c3n(c4c(-c5c(C)nn(C)c5C)c(Cl)ccc24)[C@H](C)CN(c2cc(C(=O)O)nc4ccccc24)C3=O)cc(C)c1Cl [Example 669, (R)-4-(7-chloro-10-(3-(4-chloro-3,5-dimethylphenoxy)propyl)-4-methyl-1-oxo-6-(1,3,5-trimethyl-1H-pyrazol-4-yl)-3,4-dihydropyrazino[1,2-a]indol-2(1H)-yl)quinoline-2-carboxylic acid] | 9.00 | 7600 nM |  | 
11 | COCCn1cc(C(=O)O)c2cc(OC)cc(N3C[C@@H](C)n4c(c(CCCOc5cc(C)c(Cl)c(C)c5)c5ccc(Cl)c(-c6c(C)nn(C)c6C)c54)C3=O)c21 (single isomer, unassigned) [Example 673] | 9.51 |  | 230 nM | 
12 | COCCn1c(C(=O)O)cc2c(OC)ccc(N3C[C@@H](C)n4c(c(CCCOc5cc(C)c(Cl)c(C)c5)c5ccc(Cl)c(-c6c(C)ncnc6C)c54)C3=O)c21 [Example 493, (R)-7-(7-chloro-10-(3-(4-chloro-3,5-dimethylphenoxy)propyl)-6-(4,6-dimethylpyrimidin-5-yl)-4-methyl-1-oxo-3,4-dihydropyrazino[1,2-a]indol-2(1H)-yl)-4-methoxy-1-(2-methoxyethyl)-1H-indole-2-carboxylic acid] | > 9.70 | < 200 nM |  | 
13 | Cc1cc(OCCCc2c3n(c4c(-c5c(C)nn(C)c5C)c(Cl)ccc24)[C@H](C)CN(c2cn(C[C@H]4CCC[N+]4(C)C)c4ccc(C(=O)O)cc24)C3=O)cc(C)c1Cl [Example 667, (R)-2-((5-carboxy-3-((R)-7-chloro-10-(3-(4-chloro-3,5-dimethylphenoxy)propyl)-4-methyl-1-oxo-6-(1,3,5-trimethyl-1H-pyrazol-4-yl)-3,4-dihydropyrazino[1,2-a]indol-2(1H)-yl)-1H-indol-1-yl)methyl)-1,1-dimethylpyrrolidin-1-ium] | > 9.70 |  |  | 8200 nM
14 | Cc1cc(OCCCc2c3n(c4c(-c5c(C)nn(C)c5C)c(Cl)ccc24)[C@H](C)CN(c2cccc4cc(C(=O)O)n(Cc5ccncn5)c24)C3=O)cc(C)c1Cl [Example 518, (R)-7-(7-chloro-10-(3-(4-chloro-3,5-dimethylphenoxy)propyl)-4-methyl-1-oxo-6-(1,3,5-trimethyl-1H-pyrazol-4-yl)-3,4-dihydropyrazino[1,2-a]indol-2(1H)-yl)-1-(pyrimidin-4-ylmethyl)-1H-indole-2-carboxylic acid] | > 9.70 | 810 nM |  | 
15 | Cc1cc(N2C[C@@H](C)n3c(c(CCCOc4cc(C)c(Cl)c(C)c4)c4ccc(Cl)c(-c5c(C)nn(C)c5C)c43)C2=O)c2c(c1)cc(C(=O)O)n2CC(=O)N(C)C [Example 596, (R)-7-(7-chloro-10-(3-(4-chloro-3,5-dimethylphenoxy)propyl)-4-methyl-1-oxo-6-(1,3,5-trimethyl-1H-pyrazol-4-yl)-3,4-dihydropyrazino[1,2-a]indol-2(1H)-yl)-1-(2-(dimethylamino)-2-oxoethyl)-5-methyl-1H-indole-2-carboxylic acid] | > 9.70 | 1300 nM |  | 
16 | COCCOCc1cc(N2C[C@@H](C)n3c(c(CCCOc4cc(C)c(Cl)c(C)c4)c4ccc(Cl)c(-c5c(C)nn(C)c5C)c43)C2=O)c2c(c1)cc(C(=O)O)n2C [Example 595, (R)-7-(7-chloro-10-(3-(4-chloro-3,5-dimethylphenoxy)propyl)-4-methyl-1-oxo-6-(1,3,5-trimethyl-1H-pyrazol-4-yl)-3,4-dihydropyrazino[1,2-a]indol-2(1H)-yl)-5-((2-methoxyethoxy)methyl)-1-methyl-1H-indole-2-carboxylic acid] | > 9.70 | < 200 nM |  | 
17 | COCCOCCn1c(C(=O)O)cc2cc(C)cc(N3C[C@@H](C)n4c(c(CCCOc5cc(C)c(Cl)c(C)c5)c5ccc(Cl)c(-c6c(C)nn(C)c6C)c54)C3=O)c21 [Example 678, (R)-7-(7-chloro-10-(3-(4-chloro-3,5-dimethylphenoxy)propyl)-4-methyl-1-oxo-6-(1,3,5-trimethyl-1H-pyrazol-4-yl)-3,4-dihydropyrazino[1,2-a]indol-2(1H)-yl)-1-(2-(2-methoxyethoxy)ethyl)-5-methyl-1H-indole-2-carboxylic acid] | 9.66 | < 200 nM |  | 
